Assay results taken from US9248199B2, “1:1 adducts of sickle hemoglobin” (Global Blood Therapeutics, Inc., priority 2014, dated 2016).

melting point: 179 to 182 °C
SMILES: CCn1nccc1N(C(=O)COc1cccc(O)c1C=O)C(C)C [compound 22, N-(1-ethyl-1H-pyrazol-5-yl)-2-(2-formyl-3-hydroxyphenoxy)-N-isopropylacetamide]
